{"source": "patent US6835754B2", "about": "“Use of aryl nitrone compounds in methods for treating neuropathic pain” (Renovis, Inc., priority 2001, dated 2004)", "key": {"[1]": {"tested_on": "male Swiss Webster mice, phenylquinone-induced writhing", "test": "Phenylquinone (PQ) writhing assay, % inhibition (Swiss Webster mice)", "format": "in vivo", "settings": "Mus musculus, standard, read-out: % Inhibition of Writhing Response"}, "[2]": {"tested_on": "Rats, Type II collagen assay", "test": "Hargreaves test (withdrawal latency to heat) in Type II collagen assay", "format": "in vivo", "settings": "rats Day 20 of Type II collagen assay", "procedure": "The compound of Example 20 was further tested in a Hargreaves test, another accepted model for neuropathic pain.\nRats were tested on Day 20 in Type II collagen assay. […] Two hours after the 1st dose of drug on Day 20, animals were placed on a Hargreaves apparatus glass table. A high intensity light was placed under the one hind paw and illuminated, thus creating heat. At the same time, a clock was started. The light turned off, and the clock simultaneously stopped when the animal removed the paw. The time the rat is able to withstand the hear is considered withdrawal latency."}, "[3]": {"tested_on": "Chronic constriction injury (CCI) rats", "test": "Bennett chronic constriction injury (CCI) mononeuropathy, cold allodynia assay", "format": "in vivo, Sparague Dawley rats", "settings": "1 hr post-dose", "procedure": "The peripheral mononeuropathy was induced by loose ligation of the sciatic nerve in anaesthetized rats. Ten days later, the nociceptive threshold was evaluated. The test compound is administered orally 1 hour prior to pain measurement. For comparison, a predose threshold was determined and a control experiment using 1% methyl cellulose was run. […] Animals were again tested 1-2 hrs post-dose. Predose and postdose average scores are determined.\nIn a related experiment a dose-response relationship for the compound of Example 20 was determined using the same experimental protocol. […] Animals were again tested 1 hr post-dose."}, "[4]": {"tested_on": "ICR derived male mice, phenylquinone-induced writhing", "test": "Phenylquinone (PQ) Writhing assay, number of writhes (MDS Panlabs, ICR mice)", "format": "in vivo", "settings": "for # Writhes (X + SEM): per os, 60 min before PQ 2 mg/kg ip, vehicle 20.8 ± 0.7, **P<0.01", "procedure": "The compounds of Example 20 and Example 16 administered orally at doses of 10, 30 and 100 mg/kg. Vehicle of 2% Tween 80 in distilled water was used.\nIn this study, ICR derived male mice provided by animal breeding center of MDS Panlabs Taiwan, Ltd. were used. Space allocation for 10 animals was 45×23×15 cm. Mice were housed in APEC^R (Allentown Gaging, Allentown, N.J. 08501, U.S.A.) cages in a positive pressure isolation (NuAire^R, Mode: Nu-605, airflow velocity 50±5 ft/min, HEPA Filter) and maintained in a controlled temperature (22°-24° C.) and humidity (60%-80%) environment with 12 hour light dark cycles for at least one week in MDS Panlabs Taiwan laboratory prior to be used. Free access to standard lab chow for mice (Fwusow Industry Co., Limited, Taiwan) and tap water was granted. All aspects of this work including housing, experimentation and disposal of animals were performed in general accordance with the International Guiding Principles for Biomedical Research Involving Animals (CIOMS Publication No. ISBN 92 90360194, 1985).\nThe method of Siegmund, E. et al., Proc. Soc. Exp. Biol. Med. 95: 729-731, 1957, “A method for evaluating both non-narcotic and narcotic analgesics” was used. One hour after vehicle or compound administration, the number of writhes was recorded for each mouse in groups of 10 animals during a 5 to 10 minute period following 2 mg/kg. 1.p. of phenylquinone.\nGroups of 10 male ICR mice weighing 22±2 gm were employed. Three doses (10, 30 and 100 mg/kg) of test substances suspended in a vehicle of 2% Tween 80 were administered per os. The control group received vehicle alone. […] The mean±SEM value of writhing number for each treatment group was then calculated and Dunnett's test was applied for comparison between vehicle and treated groups. Differences were considered significant when P<0.01."}, "[5]": {"tested_on": "male Swiss Webster mice, phenylquinone-induced writhing", "test": "Phenylquinone (PQ) writhing assay, % inhibition (Swiss Webster mice)", "format": "in vivo", "settings": "Mus musculus; 30 mg/kg orally in 1% methyl cellulose, 1 hour before PQ 2 mg/kg ip; read-out: % Inhibition of Writhing Response", "procedure": "Test compounds were prepared as a suspension in 1% methyl cellulose and dosed orally at a dose of 30 mg/kg to male Swiss Webster mice weighing between 15 and 25 g with 10 mice per group. Test compounds was given 1 hour before the injection of phenylquinone. Phenylquinone (Sigma) was injected intraperitoneally at a dose of 2 mg/kg. After a 5 minute acclimation period, the number of writhes was counted for a 5 minute observation period for each mouse. The total number of writhes for each test compound was compared with a vehicle group. Results were expressed as % inhibition compared to the vehicle treated group means (Table VII).\nIn related experiment, a dose response relationship was established for the compound of Example 1 using the same experimental protocl as above. […] This is shown graphically in FIG. 2."}}, "note": "Entries after “also recorded” stand apart in the source; their conditions may differ."}
{"compound": "C[C@@H]1C[C@H]2[C@@H]3CCC4=CC(=O)C=C[C@]4(C)[C@@]3(F)[C@@H](O)C[C@]2(C)[C@@]1(O)C(=O)CO", "note": "[Dexamethasone]", "values": [{"measurement": "inhibition at 1 mg/kg", "setting": "[1]; 1 mg/kg", "result": 62, "unit": "%"}]}
{"compound": "CC(C)(C)c1cc(C=[N+]([O-])C(C)(C)C)cc(C(C)(C)C)c1O", "note": "[Example 20, α-(4-hydroxy-3,5-di-tert-butylphenyl)-N-tert-butylnitrone]", "values": [{"measurement": "ED50", "setting": "[2]; Rattus norvegicus, po, two hours after dose", "result": 6.25, "unit": "mg/kg"}, {"measurement": "activity in Hargreaves test (withdrawal latency)", "setting": "[2]; doses of 10-100 mg/kg, FIG. 5", "result": "Significant activity; also recorded: does exhibit activity"}, {"measurement": "postdose latency score over vehicle, cold allodynia", "setting": "[3]; 30 mg/kg p.o., p<0.05 vs. vehicle postdose", "result": "significant postdose latency score over vehicle"}, {"measurement": "postdose latency score over vehicle, cold allodynia", "setting": "[3]; 100 mg/kg p.o., p<0.01 vs. vehicle postdose", "result": "significant postdose latency score over vehicle"}, {"measurement": "latency in the cold allodynia assay", "setting": "[3]; various doses (10, 30, 100 mg/kg, p.o.), FIG. 4", "result": "increased latency"}, {"measurement": "analgesia relative to vehicle control group (PQ writhing)", "setting": "[4]; 100, 30 and 10 mg/kg orally, P<0.01 for all 3 doses, Dunnett's test", "result": "significant"}, {"measurement": "# Writhes (X + SEM)", "setting": "[4]; Dose 30 mg/kg", "result": "0.9 ± 0.5**"}, {"measurement": "# Writhes (X + SEM)", "setting": "[4]; Dose 10 ml/kg as printed", "result": "3.1 ± 1.4**"}, {"measurement": "# Writhes (X + SEM)", "setting": "[4]; Dose 100 ml/kg as printed", "result": "0.3 ± 0.2**"}, {"measurement": "inhibition at 30 mg/kg", "setting": "[5]", "result": 62, "unit": "%"}]}
{"compound": "COc1ccc2c(c1)c(CC(=O)O)c(C)n2C(=O)c1ccc(Cl)cc1", "note": "[Indomethacin]", "values": [{"measurement": "inhibition at 3 mg/kg", "setting": "[1]; 3 mg/kg", "result": 93, "unit": "%"}]}
